Reference: patent US20090143283A1, “Pituitary Adenylate Cyclase Activating Peptide (PACAP) Receptor (VPAC2) Agonists and Their Pharmacological Methods of Use” (Bayer Pharmaceuticals Corporation, priority 2004, published 2009)

Biological target: T1, VPAC1 (Homo sapiens, UniProt P32241)
T1 construct: expressed in transfected cells; host or cells: CHO
T1 sequence (P32241 31-457): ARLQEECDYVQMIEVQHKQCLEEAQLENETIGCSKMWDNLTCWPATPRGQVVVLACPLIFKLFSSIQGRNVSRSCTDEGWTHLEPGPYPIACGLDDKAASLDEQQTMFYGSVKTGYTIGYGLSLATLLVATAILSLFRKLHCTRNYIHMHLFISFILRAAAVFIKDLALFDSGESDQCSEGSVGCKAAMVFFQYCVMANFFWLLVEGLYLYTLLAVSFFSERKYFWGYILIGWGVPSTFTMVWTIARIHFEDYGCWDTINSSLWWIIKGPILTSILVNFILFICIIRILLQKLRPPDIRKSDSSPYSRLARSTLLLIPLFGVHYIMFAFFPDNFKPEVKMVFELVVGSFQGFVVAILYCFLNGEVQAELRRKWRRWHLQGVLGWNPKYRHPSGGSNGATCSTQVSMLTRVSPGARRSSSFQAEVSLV
Experiment: Elevation of cAMP, agonist activity on VPAC1
Type: cell-based
Details: FIG. 3
Source text: The signal is detected using a scintillation counter.

For PACAP-27, the “agonist activity on VPAC1” value was “potent agonist”.
